Experiments:
[1] = target: T1, kinome (kinase panel) (Homo sapiens, UniProt P51451); experiment: KINOMEscan assay (Eurofins DiscoverX); assay type: binding; details: BLK; 1000 nM; read-out: Percent Control
T1 construct: purchased Eurofins DiscoverX

[2] = target: T2, kinome (kinase panel) (Homo sapiens, UniProt P00519, T315I); experiment: KINOMEscan assay (Eurofins DiscoverX); assay type: binding
T2 construct: purchased Eurofins DiscoverX

[3] = target: T3, kinome (kinase panel) (Homo sapiens, UniProt Q9UIK4); experiment: KINOMEscan assay (Eurofins DiscoverX); assay type: binding; details: DAPK2; 1000 nM; read-out: Percent Control
T3 construct: purchased Eurofins DiscoverX

[4] = target: T4, kinome (kinase panel) (Homo sapiens, UniProt Q9Y2I7); experiment: KINOMEscan assay (Eurofins DiscoverX); assay type: binding; details: PIKFYVE; 1000 nM; read-out: Percent Control
T4 construct: purchased Eurofins DiscoverX

[5] = target: T5, kinome (kinase panel) (Homo sapiens, UniProt P10721, V559D); experiment: KINOMEscan assay (Eurofins DiscoverX); assay type: binding; details: […]; 1000 nM; read-out: Percent Control
T5 construct: purchased Eurofins DiscoverX

[6] = target: T6, kinome (kinase panel) (Homo sapiens, UniProt P42679); experiment: KINOMEscan assay (Eurofins DiscoverX); assay type: binding; details: CTK (Entrez MATK); 1000 nM; read-out: Percent Control
T6 construct: purchased Eurofins DiscoverX

[7] = target: T7, kinome (kinase panel) (Homo sapiens, UniProt Q9Y2H1); experiment: KINOMEscan assay (Eurofins DiscoverX); assay type: binding; details: NDR2 (Entrez STK38L); 1000 nM; read-out: Percent Control
T7 construct: purchased Eurofins DiscoverX

[8] = target: T8, kinome (kinase panel) (Homo sapiens, UniProt Q06187); experiment: KINOMEscan assay (Eurofins DiscoverX); assay type: binding; details: BTK; 1000 nM; read-out: Percent Control
T8 construct: purchased Eurofins DiscoverX

[9] = target: T9, kinome (kinase panel) (Homo sapiens, UniProt Q9Y2K2); experiment: KINOMEscan assay (Eurofins DiscoverX); assay type: binding; details: QSK (Entrez KIAA0999); 1000 nM; read-out: Percent Control
T9 construct: purchased Eurofins DiscoverX

[10] = target: T10, kinome (kinase panel) (Homo sapiens, UniProt Q00537); experiment: KINOMEscan assay (Eurofins DiscoverX); assay type: binding; details: PCTK2 (Entrez CDK17); 1000 nM; read-out: Percent Control
T10 construct: purchased Eurofins DiscoverX

[11] = target: T11, kinome (kinase panel) (Homo sapiens, UniProt Q8IU85); experiment: KINOMEscan assay (Eurofins DiscoverX); assay type: binding; details: CAMK1D; 1000 nM; read-out: Percent Control
T11 construct: purchased Eurofins DiscoverX

[12] = target: T12, kinome (kinase panel) (Homo sapiens, UniProt Q9UQM7); experiment: KINOMEscan assay (Eurofins DiscoverX); assay type: binding; details: CAMK2A; 1000 nM; read-out: Percent Control
T12 construct: purchased Eurofins DiscoverX

[13] = target: T13, kinome (kinase panel) (Homo sapiens, UniProt P07949, V804M); experiment: KINOMEscan assay (Eurofins DiscoverX); assay type: binding; details: read-out: Percent Control
T13 construct: purchased Eurofins DiscoverX

[14] = target: T14, kinome (kinase panel) (Homo sapiens, UniProt Q00536); experiment: KINOMEscan assay (Eurofins DiscoverX); assay type: binding; details: PCTK1 (Entrez CDK16); 1000 nM; read-out: Percent Control
T14 construct: purchased Eurofins DiscoverX

[15] = target: T15, kinome (kinase panel) (Homo sapiens, UniProt P27037); experiment: KINOMEscan assay (Eurofins DiscoverX); assay type: binding; details: ACVR2A; 1000 nM; read-out: Percent Control
T15 construct: purchased Eurofins DiscoverX

[16] = target: T16, kinome (kinase panel) (Homo sapiens, UniProt P54760); experiment: KINOMEscan assay (Eurofins DiscoverX); assay type: binding; details: EPHB4; 1000 nM; read-out: Percent Control
T16 construct: purchased Eurofins DiscoverX

[17] = target: T17, kinome (kinase panel) (Homo sapiens, UniProt Q15375); experiment: KINOMEscan assay (Eurofins DiscoverX); assay type: binding; details: EPHA7; 1000 nM; read-out: Percent Control
T17 construct: purchased Eurofins DiscoverX

[18] = target: T18, kinome (kinase panel) (Homo sapiens, UniProt P36507); experiment: KINOMEscan assay (Eurofins DiscoverX); assay type: binding; details: MEK2 (Entrez MAP2K2); 1000 nM; read-out: Percent Control
T18 construct: purchased Eurofins DiscoverX

[19] = target: T19, kinome (kinase panel) (Homo sapiens, UniProt P10721, A829P); experiment: KINOMEscan assay (Eurofins DiscoverX); assay type: binding; details: […]; 1000 nM; read-out: Percent Control
T19 construct: purchased Eurofins DiscoverX

[20] = target: T20, kinome (kinase panel) (Homo sapiens, UniProt Q9C098); experiment: KINOMEscan assay (Eurofins DiscoverX); assay type: binding; details: DCAMKL3 (Entrez DCLK3); 1000 nM; read-out: Percent Control
T20 construct: purchased Eurofins DiscoverX

[21] = target: T21, kinome (kinase panel) (Homo sapiens, UniProt P27448); experiment: KINOMEscan assay (Eurofins DiscoverX); assay type: binding; details: MARK3; 1000 nM; read-out: Percent Control
T21 construct: purchased Eurofins DiscoverX

[22] = target: T22, kinome (kinase panel) (Homo sapiens, UniProt Q00535); experiment: KINOMEscan assay (Eurofins DiscoverX); assay type: binding; details: CDK5; 1000 nM; read-out: Percent Control
T22 construct: purchased Eurofins DiscoverX

[23] = tested on: BRD4 binding to the MYC TSS in Huh7 and Jeko-1 cells; experiment: Chromatin immunoprecipitation of BRD4 at the MYC transcriptional start site; assay type: cell-based, human
Experimental: assay for comparison relative to the no-drug control and to the time zero number of cells for assessment of growth inhibition (values between 0 and 100) and lethality (values less than 0), […]
Hepatocellular carcinoma cells (Hep3B, HepG2, and Huh7), neuroblastoma cells (CHLA-255, CHLA-136, and SMS-KNCR), mantle cell lymphoma (Granta-519, Mino, and Jeko-1), or normal tonsillar epithelial cells (RRP008) were seeded in complete medium in 96-well tissue culture plates at 2.5 x 10^3 to 1 x 10^4 cells per well, respectively. Cells were incubated overnight to allow for attachment of adherent cells. […]
or 100 µM in triplicate the following day. Cells were incubated for 48 hours at 37 °C then treated with either CCK8 reagent (Dojindo Molecular Technologies, Rockville, MD) or Alamar Blue (ThermoFisher Scientific) and incubated for 3-6 hours at 37 °C. For CCK8, absorbance was measured at 450 nm; for Alamar Blue, fluorescence signals were read as emission at 590 nm after excitation at 560 nm. Averaged values were normalized as a percentage of control and plotted and regressed for dose response using GraphPad Prism (GraphPad Software, Inc., La […]
Chromatin immunoprecipitation
Chromatin immunoprecipitation assays using antibodies against BRD4 and an isotype control and primers designed to the MYC transcriptional site and a non-regulated upstream locus were performed as previously described8. […]

[24] = tested on: mantle cell lymphoma (Granta-519, Mino, and Jeko-1); experiment: Cell viability (cytotoxicity) assay, mantle cell lymphoma cells; assay type: cell-based; details: Homo sapiens; 48 hours, CCK8 or Alamar Blue; curves of Fig. 1f-j; read-out: Half maximal inhibitory concentration (IC50) in cell line cytotoxicity assays, Mantle Cell Lymphoma
[25] = target: T23, CDK9 (Homo sapiens, UniProt P50750); experiment: In vitro kinase assay, CDK9; assay type: biochemical; details: Fig. 1b; italicized values from the literature (italics not visible)
T23 construct: purchased Reaction Biology

[26] = tested on: bromodomain panel; experiment: BROMOscan assay (Eurofins DiscoverX); assay type: binding

T3 sequence (Q9UIK4 whole entry): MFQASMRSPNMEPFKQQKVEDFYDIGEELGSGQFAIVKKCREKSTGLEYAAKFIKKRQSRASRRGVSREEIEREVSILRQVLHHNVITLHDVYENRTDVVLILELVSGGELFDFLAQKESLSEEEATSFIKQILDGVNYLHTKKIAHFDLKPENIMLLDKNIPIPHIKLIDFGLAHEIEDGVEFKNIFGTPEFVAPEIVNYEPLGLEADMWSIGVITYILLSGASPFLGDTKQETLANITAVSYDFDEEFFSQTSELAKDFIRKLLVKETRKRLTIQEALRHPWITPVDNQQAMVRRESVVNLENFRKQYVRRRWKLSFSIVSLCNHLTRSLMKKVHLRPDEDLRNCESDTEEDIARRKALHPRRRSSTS
T13 sequence (P07949 29-1114 V804M): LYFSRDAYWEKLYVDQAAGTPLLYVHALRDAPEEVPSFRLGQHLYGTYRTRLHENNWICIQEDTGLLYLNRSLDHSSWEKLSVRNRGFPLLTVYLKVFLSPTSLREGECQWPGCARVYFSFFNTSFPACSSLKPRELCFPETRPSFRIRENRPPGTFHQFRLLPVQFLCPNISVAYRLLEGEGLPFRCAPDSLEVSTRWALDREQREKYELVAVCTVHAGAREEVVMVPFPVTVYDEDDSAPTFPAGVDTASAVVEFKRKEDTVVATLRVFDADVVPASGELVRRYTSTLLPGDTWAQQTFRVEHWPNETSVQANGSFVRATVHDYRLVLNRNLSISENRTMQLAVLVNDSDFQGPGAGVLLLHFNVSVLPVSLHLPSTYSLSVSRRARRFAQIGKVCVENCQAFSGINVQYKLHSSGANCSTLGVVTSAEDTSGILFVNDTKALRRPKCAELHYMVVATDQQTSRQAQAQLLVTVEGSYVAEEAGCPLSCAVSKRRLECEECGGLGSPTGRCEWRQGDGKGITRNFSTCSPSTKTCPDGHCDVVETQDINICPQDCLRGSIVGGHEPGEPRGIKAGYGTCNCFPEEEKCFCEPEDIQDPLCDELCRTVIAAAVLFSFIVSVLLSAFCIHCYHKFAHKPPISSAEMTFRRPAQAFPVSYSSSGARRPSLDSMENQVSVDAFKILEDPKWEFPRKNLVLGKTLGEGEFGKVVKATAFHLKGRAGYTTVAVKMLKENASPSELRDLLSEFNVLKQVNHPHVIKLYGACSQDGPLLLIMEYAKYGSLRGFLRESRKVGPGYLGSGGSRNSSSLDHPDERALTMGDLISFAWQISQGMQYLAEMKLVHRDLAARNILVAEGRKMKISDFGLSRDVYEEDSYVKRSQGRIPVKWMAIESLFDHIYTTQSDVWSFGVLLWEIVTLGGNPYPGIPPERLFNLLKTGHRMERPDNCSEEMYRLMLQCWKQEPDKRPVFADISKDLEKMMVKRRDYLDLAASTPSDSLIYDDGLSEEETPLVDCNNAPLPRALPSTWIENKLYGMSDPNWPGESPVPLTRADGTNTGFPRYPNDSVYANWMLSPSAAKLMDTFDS
T11 sequence (Q8IU85 whole entry): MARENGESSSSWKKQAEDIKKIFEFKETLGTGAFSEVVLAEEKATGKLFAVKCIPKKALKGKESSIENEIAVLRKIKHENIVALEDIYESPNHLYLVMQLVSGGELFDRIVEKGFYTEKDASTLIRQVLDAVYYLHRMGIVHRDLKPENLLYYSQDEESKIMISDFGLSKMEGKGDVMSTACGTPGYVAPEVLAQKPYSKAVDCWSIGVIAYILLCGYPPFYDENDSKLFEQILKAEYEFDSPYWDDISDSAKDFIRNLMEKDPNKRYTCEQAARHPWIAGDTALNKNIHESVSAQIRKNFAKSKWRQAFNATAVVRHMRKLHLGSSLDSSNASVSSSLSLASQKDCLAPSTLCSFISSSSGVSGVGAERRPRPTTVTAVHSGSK
T16 sequence (P54760 16-987): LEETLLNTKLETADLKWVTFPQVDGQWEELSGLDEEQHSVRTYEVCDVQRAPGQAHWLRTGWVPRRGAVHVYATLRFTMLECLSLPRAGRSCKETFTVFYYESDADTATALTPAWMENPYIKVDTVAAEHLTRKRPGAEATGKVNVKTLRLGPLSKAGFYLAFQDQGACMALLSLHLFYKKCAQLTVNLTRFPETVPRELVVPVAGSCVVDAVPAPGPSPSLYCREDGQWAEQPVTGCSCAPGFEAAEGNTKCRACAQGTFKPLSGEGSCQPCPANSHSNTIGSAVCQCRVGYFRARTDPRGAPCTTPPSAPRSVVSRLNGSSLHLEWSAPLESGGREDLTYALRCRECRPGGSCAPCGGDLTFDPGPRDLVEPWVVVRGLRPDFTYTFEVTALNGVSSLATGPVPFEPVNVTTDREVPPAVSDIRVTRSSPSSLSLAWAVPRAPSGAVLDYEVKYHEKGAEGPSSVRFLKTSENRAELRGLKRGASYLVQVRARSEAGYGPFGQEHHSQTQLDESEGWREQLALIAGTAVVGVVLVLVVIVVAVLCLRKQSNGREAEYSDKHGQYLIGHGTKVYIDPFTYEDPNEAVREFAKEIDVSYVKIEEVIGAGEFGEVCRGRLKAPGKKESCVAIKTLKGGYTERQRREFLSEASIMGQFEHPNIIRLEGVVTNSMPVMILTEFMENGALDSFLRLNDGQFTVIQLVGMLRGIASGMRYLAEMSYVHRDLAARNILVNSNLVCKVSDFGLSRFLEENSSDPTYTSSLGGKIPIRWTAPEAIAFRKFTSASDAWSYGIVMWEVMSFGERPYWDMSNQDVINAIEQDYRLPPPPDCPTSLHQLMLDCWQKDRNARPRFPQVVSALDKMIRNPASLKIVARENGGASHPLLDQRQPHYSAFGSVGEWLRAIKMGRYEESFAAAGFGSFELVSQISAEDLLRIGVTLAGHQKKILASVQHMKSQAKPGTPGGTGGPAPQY
T10 sequence (Q00537 whole entry): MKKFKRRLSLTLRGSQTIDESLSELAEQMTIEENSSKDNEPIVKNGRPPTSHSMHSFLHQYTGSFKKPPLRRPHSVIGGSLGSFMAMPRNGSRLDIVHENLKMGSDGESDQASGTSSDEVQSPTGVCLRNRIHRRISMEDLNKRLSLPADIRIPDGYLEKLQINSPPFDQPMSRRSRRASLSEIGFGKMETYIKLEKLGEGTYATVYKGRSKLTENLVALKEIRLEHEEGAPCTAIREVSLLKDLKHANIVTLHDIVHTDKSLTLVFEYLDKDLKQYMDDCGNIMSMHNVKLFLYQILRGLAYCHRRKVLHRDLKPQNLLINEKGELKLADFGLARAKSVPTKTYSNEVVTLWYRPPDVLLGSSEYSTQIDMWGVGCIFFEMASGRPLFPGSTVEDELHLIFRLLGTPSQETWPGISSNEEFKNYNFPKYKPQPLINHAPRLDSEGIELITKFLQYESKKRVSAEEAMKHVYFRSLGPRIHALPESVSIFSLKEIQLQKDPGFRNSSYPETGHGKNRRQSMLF
T1 sequence (P51451 whole entry): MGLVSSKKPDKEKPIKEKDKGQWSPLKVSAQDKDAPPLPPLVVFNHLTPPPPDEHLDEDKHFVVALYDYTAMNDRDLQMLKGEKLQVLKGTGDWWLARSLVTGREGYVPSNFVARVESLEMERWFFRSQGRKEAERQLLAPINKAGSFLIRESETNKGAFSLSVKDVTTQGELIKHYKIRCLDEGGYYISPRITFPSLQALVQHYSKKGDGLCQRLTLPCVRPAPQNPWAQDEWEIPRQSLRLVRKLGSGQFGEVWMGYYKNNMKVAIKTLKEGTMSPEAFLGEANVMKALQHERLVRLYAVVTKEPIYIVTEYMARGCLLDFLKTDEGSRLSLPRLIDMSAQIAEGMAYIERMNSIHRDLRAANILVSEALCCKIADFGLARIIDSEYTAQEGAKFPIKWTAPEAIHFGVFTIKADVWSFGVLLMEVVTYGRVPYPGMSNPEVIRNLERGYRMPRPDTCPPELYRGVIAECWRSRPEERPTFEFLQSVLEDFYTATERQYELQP
T15 sequence (P27037 20-513): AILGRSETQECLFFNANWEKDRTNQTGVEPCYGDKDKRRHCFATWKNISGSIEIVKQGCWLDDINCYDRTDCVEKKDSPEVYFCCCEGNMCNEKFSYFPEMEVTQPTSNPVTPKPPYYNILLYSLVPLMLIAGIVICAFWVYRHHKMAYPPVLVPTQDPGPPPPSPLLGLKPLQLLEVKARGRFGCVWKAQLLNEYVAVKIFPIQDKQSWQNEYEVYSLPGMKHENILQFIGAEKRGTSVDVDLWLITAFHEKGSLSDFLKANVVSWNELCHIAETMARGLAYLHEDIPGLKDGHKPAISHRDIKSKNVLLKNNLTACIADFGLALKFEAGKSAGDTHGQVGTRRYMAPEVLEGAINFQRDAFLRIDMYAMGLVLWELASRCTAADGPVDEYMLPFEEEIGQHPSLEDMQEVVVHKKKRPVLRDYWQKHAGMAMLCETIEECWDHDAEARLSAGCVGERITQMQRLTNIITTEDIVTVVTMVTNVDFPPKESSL
T14 sequence (Q00536 whole entry): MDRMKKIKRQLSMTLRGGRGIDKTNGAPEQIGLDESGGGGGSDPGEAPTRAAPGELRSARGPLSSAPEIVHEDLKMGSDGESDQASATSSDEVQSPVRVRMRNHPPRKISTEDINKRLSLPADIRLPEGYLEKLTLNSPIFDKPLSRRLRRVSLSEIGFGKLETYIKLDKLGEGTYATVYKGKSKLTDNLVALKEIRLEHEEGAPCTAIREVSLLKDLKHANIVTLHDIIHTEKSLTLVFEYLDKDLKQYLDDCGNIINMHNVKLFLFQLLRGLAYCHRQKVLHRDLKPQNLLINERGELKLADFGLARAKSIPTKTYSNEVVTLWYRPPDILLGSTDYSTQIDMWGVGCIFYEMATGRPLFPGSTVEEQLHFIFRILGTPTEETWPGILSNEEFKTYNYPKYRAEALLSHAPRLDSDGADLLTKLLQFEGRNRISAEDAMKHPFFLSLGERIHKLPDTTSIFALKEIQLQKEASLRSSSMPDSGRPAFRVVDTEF

Question: What does the source list for `CN(C)C(=O)c1cc2cnc(Nc3ccc(-c4csc5c(=O)cc(N6CCOCC6)oc45)cc3)nc2n1C1CCCC1` [SRX3177]?
Answer: remaining binding at 1 µM [1]: 100%; Percent Control [2]: 79; remaining binding at 1 µM ([2]; read-out: Percent Control): 88%; remaining binding at 1 µM [3]: 89%; remaining binding at 1 µM [4]: 2.4%; remaining binding at 1 µM [5]: 49%; remaining binding at 1 µM [6]: 94%; remaining binding at 1 µM [7]: 90%; remaining binding at 1 µM [8]: 67%; remaining binding at 1 µM [9]: 59%; remaining binding at 1 µM [10]: 55%; remaining binding at 1 µM [11]: 95%; remaining binding at 1 µM [12]: 76%; remaining binding at 1 µM [13]: 100%; remaining binding at 1 µM [14]: 21%; remaining binding at 1 µM [15]: 99%; remaining binding at 1 µM [16]: 98%; remaining binding at 1 µM [17]: 100%; remaining binding at 1 µM [18]: 50%; remaining binding at 1 µM [19]: 1.6%; remaining binding at 1 µM [20]: 100%; remaining binding at 1 µM [21]: 85%; remaining binding at 1 µM [22]: 90%; occupancy of BRD4 at the transcriptional start site (TSS) of MYC by ChIP [23]: abrogated binding of BRD4 to the MYC TSS; IC50 [24]: 830 nM; IC50 [25]: < 2 nM; specificity in BROMOscan [26]: lack of off-targeting
